PubChem BioAssay AID1259408 (Genetic Toxicology Data Bank (GENE-TOX), 2018)
Activity calls are given as the source filed them. No rule for the calls is given here.

Tested on: GENE-TOX genotoxicity assays, various organisms and cells
Assay: GENE-TOX mutagenicity studies
Settings: for call: Assay Type: In vivo carcinogenicity studies
[1] = Species/Cell Type: Drosophila melanogaster, Assay Type: Sex-linked recessive lethal gene mutation, Assay Code: SRL+, Evaluation Type: Evaluation A (Pre-1980)
[2] = Species/Cell Type: Nonhuman, Assay Code: CCG-, Evaluation Type: Evaluation A (Pre-1980)
[3] = Species/Cell Type: Arabidopsis species, Assay Type: Gene mutation, Assay Code: ARM+, Evaluation Type: Evaluation A (Pre-1980)
[4] = Species/Cell Type: Salmonella typhimurium (one or more of the five standard strains: TA98, TA100, TA1535, TA1537, and TA1538), Assay Type: Histidine reverse gene mutation, Ames assay, Assay Code: SAL+*, Activation: With metabolic activation, Evaluation Type: Evaluation A (Pre-1980)
[5] = Species/Cell Type: Allium cepa, Assay Type: Chromosome aberrations, Assay Code: ALC+, Evaluation Type: Evaluation A (Pre-1980)
[6] = Species/Cell Type: Human lymphocytes, Assay Type: Sister-chromatid exchange (SCE) in vitro, Assay Code: SCL+D, Dose Response: With dose response, Evaluation Type: Evaluation B (Post-1980)
[7] = Species/Cell Type: Human, Assay Type: Sister-chromatid exchange (SCE) in vitro, Assay Code: SC1+D, Dose Response: With dose response, Evaluation Type: Evaluation B (Post-1980)
[8] = Species/Cell Type: Salmonella typhimurium (one or more of the five standard strains: TA98, TA100, TA1535, TA1537, and TA1538), Assay Type: Histidine reverse gene mutation, Ames assay, Assay Code: SALT, Evaluation Type: Evaluation A (Pre-1980)
[9] = Species/Cell Type: Salmonella typhimurium (one or more of the five standard strains: TA98, TA100, TA1535, TA1537, and TA1538), Assay Type: Histidine reverse gene mutation, Ames assay, Assay Code: SAL-, Evaluation Type: Evaluation A (Pre-1980)
[10] = Species/Cell Type: Human, Assay Type: Sister-chromatid exchange (SCE) in vitro, Assay Code: SC1T, Evaluation Type: Evaluation B (Post-1980)
[11] = Species/Cell Type: Nonhuman, Assay Type: Sister-chromatid exchange (SCE) in vitro, Assay Code: SC2+, Evaluation Type: Evaluation B (Post-1980)

With O=C1OCCN1N=Cc1ccc([N+](=O)[O-])o1 the mutagenic call (Species/Cell Type: Bacillus subtilis (H17 vs M45), Assay Type: Rec-assay, spot test, DNA effects (bacterial DNA repair), Assay Code: REW+, Evaluation Type: Evaluation A (Pre-1980)) was “active; positive”, the mutagenic call [1] was “active; positive” and the mutagenic call (Species/Cell Type: Escherichia coli WP2, Assay Type: Tryptophan reverse gene mutation, Assay Code: WP2+, Evaluation Type: Evaluation A (Pre-1980)) was “active; positive”. For the same compound, the mutagenic call (Species/Cell Type: Escherichia coli WP2 UVRA, Assay Type: Tryptophan reverse gene mutation, Assay Code: WPU+, Evaluation Type: Evaluation A (Pre-1980)) was “active; positive”, the mutagenic call (Species/Cell Type: Human diploid fibroblasts, Assay Type: Unscheduled DNA synthesis (UDS) in vitro, DNA effects, Assay Code: UDH-, Evaluation Type: Evaluation A (Pre-1980)) was “inactive; negative” and the mutagenic call (Species/Cell Type: Human lymphocytes, Assay Type: Sister-chromatid exchange (SCE) in vitro, Assay Code: SCL+, Evaluation Type: Evaluation B (Post-1980)) was “active; positive”. The mutagenic call (Species/Cell Type: Human lymphocytes, Assay Type: Sister-chromatid exchange (SCE) in vitro, Assay Code: SCLT, Evaluation Type: Evaluation A (Pre-1980)) was “no conclusion”, the mutagenic call (Species/Cell Type: Human, Assay Type: Sister-chromatid exchange (SCE) in vitro, Assay Code: SC1+, Evaluation Type: Evaluation B (Post-1980)) was “active; positive” and the mutagenic call (Species/Cell Type: Human, Assay Type: Sister-chromatid exchange (SCE) in vitro, Assay Code: SC1T, Evaluation Type: Evaluation A (Pre-1980)) was “no conclusion”.

COc1ccc(/C=N/NC(=O)COc2ccc(Br)cc2CN2CCOCC2)cc1 was tested, and the mutagenic call (Species/Cell Type: Saccharomyces cerevisiae, Assay Type: Reverse gene mutation, Assay Code: YERT, Evaluation Type: Evaluation A (Pre-1980)) was “no conclusion”.

In the case of CC1CN1P(=O)(Cc1ccccc1)N1CC1C (configuration not stated), the mutagenic call [1] is reported as “active; positive”.

With CCC(C)c1cc([N+](=O)[O-])cc([N+](=O)[O-])c1OC(C)=O (configuration not stated) the mutagenic call (Species/Cell Type: Saccharomyces cerevisiae, Assay Type: Mitotic recombination or gene conversion, Assay Code: YEC-, Evaluation Type: Evaluation A (Pre-1980)) was “inactive; negative”.

For Cc1c(N)cccc1N, the call [2] was “inactive; negative”.

[O]=[Sn]([OH])[OH] was tested, and the mutagenic call (Species/Cell Type: Bacillus subtilis (H17 vs M45), Assay Type: Rec-assay, spot test, DNA effects (bacterial DNA repair), Assay Code: REW-, Evaluation Type: Evaluation A (Pre-1980)) was “inactive; negative”.

CN(CC(=O)O)N=O was tested, and the call (Species/Cell Type: Nonhuman, Assay Code: CCG+, Evaluation Type: Evaluation A (Pre-1980)) was “active; positive” and the mutagenic call (Species/Cell Type: Salmonella typhimurium, Assay Type: Forward and reverse gene mutation, host-mediated assay, Assay Code: HMA-, Evaluation Type: Evaluation A (Pre-1980)) was “inactive; negative”.

CCCCN(C)N=O was tested, and the mutagenic call [3] was “active; positive”, the mutagenic call (Species/Cell Type: Escherichia coli polA (W3119 vs P3478), Assay Type: Rec-assay, DNA effects (bacterial DNA repair), Assay Code: RE1T, Evaluation Type: Evaluation A (Pre-1980)) was “no conclusion” and the mutagenic call [4] was “active; positive”.

For COc1ccccc1O, the mutagenic call [5] was “active; positive”, the mutagenic call [6] was “active; positive” and the mutagenic call [7] was “active; positive”. The mutagenic call [8] was “no conclusion”.

In the case of CC(=O)NO, the mutagenic call (Species/Cell Type: Human lymphocytes or leukocytes, Assay Type: Chromosome aberrations in vitro, Assay Code: CY7-, Evaluation Type: Evaluation A (Pre-1980)) is reported as “inactive; negative”.

With C[n+]1c2ccccc2cc2cccc(N)c21 the mutagenic call (Species/Cell Type: Saccharomyces cerevisiae, Assay Type: Forward gene mutation, Assay Code: YEF+, Evaluation Type: Evaluation A (Pre-1980)) was “active; positive”.

CC(C)CCC[C@@H](C)[C@H]1CC[C@H]2[C@@H]3C[C@@H]4O[C@@]45C[C@@H](O)CC[C@]5(C)[C@H]3CC[C@]12C was tested, and the mutagenic call (Species/Cell Type: Syrian hamster embryo (SHE) cells, Assay Type: Cell transformation, clonal assay, Assay Code: CTC+, Evaluation Type: Evaluation A (Pre-1980)) was “active; positive”.

For C=COC(C)=O, the mutagenic call [6] was “active; positive”, the mutagenic call [7] was “active; positive” and the mutagenic call (Species/Cell Type: Mammalian polychromatic erythrocytes, Assay Type: Micronucleus test, chromosome aberrations, Assay Code: MNT+, Evaluation Type: Evaluation B (Post-1980)) was “active; positive”. For the same compound, the call (Species/Cell Type: Nonhuman, Assay Code: CCG+L, Evaluation Type: Evaluation A (Pre-1980)) was “active; positive”, the mutagenic call (Species/Cell Type: Nonhuman, Assay Type: Sister-chromatid exchange (SCE) in vitro, Assay Code: SC2+D, Dose Response: With dose response, Evaluation Type: Evaluation B (Post-1980)) was “active; positive” and the mutagenic call [9] was “inactive; negative”. For the same compound, the mutagenic call (Species/Cell Type: Syrian hamster embryo (SA7/SHE) cells, Assay Type: Cell transformation, viral enhanced, Assay Code: CT7+, Evaluation Type: Evaluation A (Pre-1980)) was “active; positive”.

CC[n+]1c(-c2ccccc2)c2cc(N=[N+]=[N-])ccc2c2ccc(N)cc21 was tested, and the mutagenic call [8] was “no conclusion”.

Cc1cc2c(c3ccc4ccccc4c13)CC(O)C2=O (configuration not stated) was tested, and the mutagenic call [4] was “active; positive”.

In the case of c1ccc2c(c1)Sc1ccccc1N2CCCN1CCNCC1, the mutagenic call (Species/Cell Type: Human lymphocytes, Assay Type: Sister-chromatid exchange (SCE) in vitro, Assay Code: SCLT, Evaluation Type: Evaluation B (Post-1980)) is reported as “no conclusion” and the mutagenic call [10] is reported as “no conclusion”.

In the case of COc1cc(-c2ccc(-[n+]3nc(-c4ccccc4)nn3-c3ccc([N+](=O)[O-])cc3)c(OC)c2)ccc1-[n+]1nc(-c2ccccc2)nn1-c1ccc([N+](=O)[O-])cc1, the mutagenic call (Species/Cell Type: Bacillus subtilis (H17 vs M45T), Assay Type: Rec-assay, spot test, DNA effects (bacterial DNA repair), Assay Code: REXT, Evaluation Type: Evaluation A (Pre-1980)) is reported as “no conclusion”.

In the case of CN1C(=O)CN=C(c2ccccc2)c2cc(Cl)ccc21, the mutagenic call (Species/Cell Type: Human lymphocytes, Assay Type: Sister-chromatid exchange (SCE) in vivo, Assay Code: SCY+, Evaluation Type: Evaluation B (Post-1980)) is reported as “active; positive”, the mutagenic call [10] is reported as “no conclusion” and the mutagenic call (Species/Cell Type: Mammalian polychromatic erythrocytes, Assay Type: Micronucleus test, chromosome aberrations, Assay Code: MNTT, Evaluation Type: Evaluation A (Pre-1980)) is reported as “no conclusion”. For the same compound, the mutagenic call [8] was “no conclusion” and the mutagenic call (Species/Cell Type: Salmonella typhimurium, Assay Type: Forward and reverse gene mutation, body fluid assay, Assay Code: BFU+, Evaluation Type: Evaluation A (Pre-1980)) was “active; positive”.

CCCCCCN(N=O)/C(N)=N/[N+](=O)[O-] was tested, and the mutagenic call [8] was “no conclusion”.

With CC(C)CN(N=O)/C(N)=N/[N+](=O)[O-] the mutagenic call [3] was “active; positive” and the mutagenic call (Species/Cell Type: Salmonella typhimurium (one or more of the five standard strains: TA98, TA100, TA1535, TA1537, and TA1538), Assay Type: Histidine reverse gene mutation, Ames assay, Assay Code: SAL+, Evaluation Type: Evaluation A (Pre-1980)) was “active; positive”.

S=C(S)NCCNC(=S)S was tested, and the mutagenic call (Species/Cell Type: Allium cepa, Assay Type: Chromosome aberrations, Assay Code: ALC+D, Dose Response: With dose response, Evaluation Type: Evaluation A (Pre-1980)) was “active; positive”.

For CN(C)c1ccccc1N=Nc1ccccc1, the mutagenic call (Species/Cell Type: Salmonella typhimurium, Assay Type: Forward and reverse gene mutation, host-mediated assay, Assay Code: HMA+, Evaluation Type: Evaluation A (Pre-1980)) was “active; positive”.

With CC(=O)OC[C@H]1O[C@@H](Oc2cccc3c2C(=O)c2c(O)cccc2C3=O)[C@H](OC(C)=O)[C@@H](OC(C)=O)[C@@H]1OC(C)=O the mutagenic call [4] was “active; positive”.

With OCC(F)(F)F the mutagenic call [8] was “no conclusion”.

With CCOCC the mutagenic call (Species/Cell Type: Aspergillus nidulans, Assay Type: Forward gene mutation, Assay Code: ASF-, Evaluation Type: Evaluation A (Pre-1980)) was “inactive; negative”, the mutagenic call (Species/Cell Type: Escherichia coli polA (W3119 vs P3478), Assay Type: Rec-assay, DNA effects (bacterial DNA repair), Assay Code: RE1+, Evaluation Type: Evaluation A (Pre-1980)) was “active; positive” and the mutagenic call (Species/Cell Type: Mouse, Sex: Male, Assay Type: Sperm morphology, Assay Code: SPI-, Evaluation Type: Evaluation A (Pre-1980)) was “inactive; negative”. For the same compound, the mutagenic call (Species/Cell Type: Nonhuman, Assay Type: Sister-chromatid exchange (SCE) in vitro, Assay Code: SC2T, Evaluation Type: Evaluation B (Post-1980)) was “no conclusion” and the mutagenic call [8] was “no conclusion”.

For CN1CCC[C@H]1c1cccnc1, the mutagenic call (Species/Cell Type: Neurospora crassa, Assay Type: Aneuploidy, chromosome aberrations, Assay Code: NEN-, Evaluation Type: Evaluation A (Pre-1980)) was “inactive; negative”, the mutagenic call [11] was “active; positive” and the mutagenic call [9] was “inactive; negative”.

CNC(=O)CSP(=S)(OC)OC was tested, and the mutagenic call [5] was “active; positive”, the mutagenic call (Species/Cell Type: Bacillus subtilis (H17 vs M45), Assay Type: Rec-assay, spot test, DNA effects (bacterial DNA repair), Assay Code: REWT, Evaluation Type: Evaluation A (Pre-1980)) was “no conclusion” and the mutagenic call (Species/Cell Type: Drosophila melanogaster, Assay Type: Sex-linked recessive lethal gene mutation, Assay Code: SRL-, Evaluation Type: Evaluation A (Pre-1980)) was “inactive; negative”. For the same compound, the mutagenic call [7] was “active; positive”, the mutagenic call (Species/Cell Type: Mammalian polychromatic erythrocytes, Assay Type: Micronucleus test, chromosome aberrations, Assay Code: MNT+U, Dose Response: Unconfirmed positive response, Evaluation Type: Evaluation B (Post-1980)) was “active; positive” and the call [2] was “inactive; negative”. For the same compound, the mutagenic call [11] was “active; positive”, the mutagenic call (Species/Cell Type: Saccharomyces cerevisiae, Assay Type: Mitotic recombination or gene conversion, Assay Code: YEC+, Evaluation Type: Evaluation A (Pre-1980)) was “active; positive” and the mutagenic call (Species/Cell Type: Vicia faba, Assay Type: Chromosome aberrations, Assay Code: VIC+D, Dose Response: With dose response, Evaluation Type: Evaluation A (Pre-1980)) was “active; positive”.
